Measured values reported in patent US10874743B2, “IRAK degraders and uses thereof” (Kymera Therapeutics, Inc., priority 2017, dated 2020).
“And” between values parts separate entries of the source, which are not always exact repeats. Identical values can stand only once. Like-named read-outs stand apart in the source and are kept apart here.

Assay: Pharmacokinetics in CD-1 mice (plasma concentrations, PK parameters)
Assay type: in vivo
Conditions: for AUC(0-t): read-out: AUC0-last; for MRT inf: read-out: MRT0-inf; for MRT last: read-out: MRT0-last; for Vd: read-out: Vdss
Description: Pharmacokinetics for I-127, I-172 and I-210 were determined in Sprague Dawley rats or CD-1 mice by dosing intravenous (IV), subcutaneous (SC) or per oral (PO) using facility SOPs and sampling plasma at required time points. Species, formulation, route of administration and time points samples are listed below for each compound.
Compounds were extracted from plasma, injected on reverse phase HPLC, eluted with a gradient from 5% to 95% acetonitrile in water and quantified by mass spectrometry with internal standard. Data are expressed in ng compound per mL of plasma.

[1] = CD-1, mouse, plasma, iv, 2 mg/kg, mouse (CD1) iv 2 mg/kg, Mean IV
[2] = CD-1, mouse, plasma, sc, 30 mg/kg, mouse (CD1) sc 30 mg/kg, Mean SC
[3] = CD-1, mouse, plasma, sc, 30 mg/kg, mouse (CD1) sc 30 mg/kg, individual M07-M09
[4] = mouse (CD1) iv 2 mg/kg, Mean IV
[5] = mouse (CD1) iv 2 mg/kg, individual M01-M03, 2 mg/kg
[6] = mouse (CD1) sc 30 mg/kg, individual M07-M09
[7] = mouse (CD1) sc 30 mg/kg, individual M07-M09, 30 mg/kg

concentration at 5 min (CD-1, mouse, plasma, iv, 2 mg/kg, mouse (CD1) iv 2 mg/kg, 5 min, Mean IV, read-out: concentrations): 1290 ng/mL
concentration at 0.5 h (CD-1, mouse, plasma, iv, 2 mg/kg, mouse (CD1) iv 2 mg/kg, 0.500 h, Mean IV, read-out: concentrations): 102 ng/mL
concentration at 1 h (CD-1, mouse, plasma, iv, 2 mg/kg, mouse (CD1) iv 2 mg/kg, 1.00 h, Mean IV, read-out: concentrations): 49.7 ng/mL
concentration at 2 h (CD-1, mouse, plasma, iv, 2 mg/kg, mouse (CD1) iv 2 mg/kg, 2.00 h, Mean IV, read-out: concentrations): 31.7 ng/mL
concentration at 4 h (CD-1, mouse, plasma, iv, 2 mg/kg, mouse (CD1) iv 2 mg/kg, 4.00 h, Mean IV, read-out: concentrations): 12.2 ng/mL
concentration at 6 h (CD-1, mouse, plasma, iv, 2 mg/kg, mouse (CD1) iv 2 mg/kg, 6.00 h, Mean IV, read-out: concentrations): 5.31 ng/mL
concentration at 24 h (CD-1, mouse, plasma, iv, 2 mg/kg, mouse (CD1) iv 2 mg/kg, 24.0 h, individual M01-M03, read-out: concentrations): 2.2 ng/mL
clearance [1]: 84.9 mL/min/kg
half-life [1]: 3.65 h
AUC(0-inf) (CD-1, mouse, plasma, iv, 2 mg/kg, mouse (CD1) iv 2 mg/kg, Mean IV, read-out: AUC0-inf): 511 ng·h/mL
AUC(0-t) [1]: 496 ng·h/mL
C0 (CD-1, mouse, plasma, iv, 2 mg/kg, mouse (CD1) iv 2 mg/kg, Mean IV, read-out: C0): 2160 ng/mL
MRT inf [1]: 1.54 h
MRT last [1]: 1.1 h
Vd [1]: 6.25 L/kg
Vd (CD-1, mouse, plasma, iv, 2 mg/kg, mouse (CD1) iv 2 mg/kg, individual M01-M03): 5.73 L/kg
AUC(0-t) [2]: 39.8 ng·h/mL
Cmax (CD-1, mouse, plasma, sc, 30 mg/kg, mouse (CD1) sc 30 mg/kg, Mean SC, read-out: Cmax): 2.91 ng/mL
MRT last [2]: 11.3 h
Tmax (CD-1, mouse, plasma, sc, 30 mg/kg, mouse (CD1) sc 30 mg/kg, Mean SC, read-out: Tmax): 2.67 h
half-life [3]: 39.2 h
AUC(0-inf) (CD-1, mouse, plasma, sc, 30 mg/kg, mouse (CD1) sc 30 mg/kg, individual M07-M09, read-out: AUC0-inf): 144 ng·h/mL
AUC(0-t) [3]: 33 ng·h/mL
MRT inf [3]: 54.2 h
MRT last [3]: 11.7 h
Tmax (CD-1, mouse, plasma, sc, 30 mg/kg, mouse (CD1) sc 30 mg/kg, individual M07-M09, read-out: Tmax): 2 h
bioavailability (CD-1, plasma, mouse (CD1) sc 30 mg/kg, Mean SC): 0.534%
concentrations (mouse (CD1) iv 2 mg/kg, 5 min, individual M01-M03, 2 mg/kg): 2310 ng/mL and 831 ng/mL and 738 ng/mL
concentrations (mouse (CD1) iv 2 mg/kg, 0.500 h, individual M01-M03, 2 mg/kg): 166 ng/mL and 58.7 ng/mL and 82.1 ng/mL
concentrations (mouse (CD1) iv 2 mg/kg, 1.00 h, individual M01-M03, 2 mg/kg): 91 ng/mL and 22.3 ng/mL and 35.8 ng/mL
concentrations (mouse (CD1) iv 2 mg/kg, 2.00 h, individual M01-M03, 2 mg/kg): 51.5 ng/mL and 12.7 ng/mL and 30.9 ng/mL
concentrations (mouse (CD1) iv 2 mg/kg, 4.00 h, individual M01-M03, 2 mg/kg): 18.6 ng/mL and 7.08 ng/mL and 10.9 ng/mL
concentrations (mouse (CD1) iv 2 mg/kg, 6.00 h, individual M01-M03, 2 mg/kg): 8.13 ng/mL and 3.38 ng/mL and 4.42 ng/mL
concentrations (mouse (CD1) iv 2 mg/kg, 24.0 h, individual M01-M03, 2 mg/kg): BQL
AUCExtra [4]: 2.97%
AUMCExtra [4]: 29.9%
AUCExtra [5]: 2.57% and 3.55% and 2.80%
AUMCExtra [5]: 33.8% and 34.9% and 20.8%
C0 [5]: 3910 ng/mL and 1412 ng/mL and 1145 ng/mL
MRT0-inf [5]: 2.63 h and 0.916 h and 1.08 h
MRT0-last [5]: 1.79 h and 0.618 h and 0.882 h
T1/2 [5]: 7.43 h and 2.09 h and 1.43 h
Tlast [5]: 24.0 h and 6.00 h (2×)
Vdss [5]: 6.36 L/kg and 6.67 L/kg
concentrations (mouse (CD1) po 30 mg/kg, 0.500 h, individual M04-M06): BQL
concentrations (mouse (CD1) po 30 mg/kg, 1.00 h, individual M04-M06): BQL
concentrations (mouse (CD1) po 30 mg/kg, 2.00 h, individual M04-M06): BQL
concentrations (mouse (CD1) po 30 mg/kg, 4.00 h, individual M04-M06): BQL
concentrations (mouse (CD1) po 30 mg/kg, 6.00 h, individual M04-M06): BQL
concentrations (mouse (CD1) po 30 mg/kg, 24.0 h, individual M04-M06): BQL
concentrations (mouse (CD1) sc 30 mg/kg, 0.500 h, Mean SC): 1.81 ng/mL
concentrations (mouse (CD1) sc 30 mg/kg, 0.500 h, individual M07-M09, 30 mg/kg): 1.29 ng/mL and 2.28 ng/mL and 1.85 ng/mL
concentrations (mouse (CD1) sc 30 mg/kg, 1.00 h, Mean SC): 2 ng/mL
concentrations (mouse (CD1) sc 30 mg/kg, 1.00 h, individual M07-M09, 30 mg/kg): 1.87 ng/mL and 2.51 ng/mL and 1.61 ng/mL
concentrations (mouse (CD1) sc 30 mg/kg, 2.00 h, Mean SC): 2.88 ng/mL
concentrations (mouse (CD1) sc 30 mg/kg, 2.00 h, individual M07-M09, 30 mg/kg): 2.21 ng/mL and 4.61 ng/mL and 1.82 ng/mL
concentrations (mouse (CD1) sc 30 mg/kg, 4.00 h, Mean SC): 1.59 ng/mL
concentrations (mouse (CD1) sc 30 mg/kg, 4.00 h, individual M07-M09, 30 mg/kg): 1.01 ng/mL and 1.86 ng/mL and 1.9 ng/mL
concentrations (mouse (CD1) sc 30 mg/kg, 6.00 h, Mean SC): 1.8 ng/mL
concentrations (mouse (CD1) sc 30 mg/kg, 6.00 h, individual M07-M09, 30 mg/kg): 1.41 ng/mL and 2.82 ng/mL and 1.18 ng/mL
concentrations (mouse (CD1) sc 30 mg/kg, 24.0 h, Mean SC): 1.38 ng/mL
concentrations (mouse (CD1) sc 30 mg/kg, 24.0 h, individual M07-M09, 30 mg/kg): 1.3 ng/mL and 1.58 ng/mL and 1.26 ng/mL
Tlast (mouse (CD1) sc 30 mg/kg, Mean SC): 24.0 h
AUCExtra [6]: 62.1%
AUMCExtra [6]: 92.4%
Tlast [6]: 24.0 h
AUC0-last [7]: 54.5 ng·h/mL and 31.7 ng·h/mL
Cmax [7]: 2.21 ng/mL and 4.61 ng/mL and 1.90 ng/mL
MRT0-last [7]: 10.9 h and 11.4 h
Tmax [7]: 4.00 h
SMILES: NC(=O)c1nn(-c2ccc(C(=O)NCCOCCOCCNc3cccc4c3C(=O)N(C3CCC(=O)NC3=O)C4=O)cc2)cc1NC(=O)c1coc(-c2ccnc(NCC(F)(F)F)c2)n1 (stereo not shown) [I-127, N-[3-carbamoyl-1-[4-[2-[2-[2-[[2-(2,6-dioxo-3-piperidyl)-1,3-dioxo-isoindolin-4-yl]amino]ethoxy]ethoxy]ethylcarbamoyl]phenyl]pyrazol-4-yl]-2-[2-(2,2,2-trifluoroethylamino)-4-pyridyl]oxazole-4-carboxamide]
AUC0-last [5]: 896 ng·h/mL and 278 ng·h/mL and 316 ng·h/mL
AUC(0-inf) [5]: 919 ng·h/mL and 288 ng·h/mL and 325 ng·h/mL
Cl [5]: 36.3 mL/min/kg and 116 mL/min/kg and 103 mL/min/kg
